Measurements taken from patent US20120082626A1, “USE OF R-BAMBUTEROL AS INHALED MEDICAMENT AND COMBINATION THERAPIES FOR TREATMENT OF RESPIRATORY DISORDERS” (priority 2009, published 2012).
“Also recorded” adds a separate entry of the source.

Columns and labels:
[1] = test system: OVA evoked asthma in sensitized guinea-pigs; assay: Relief of antigen-evoked asthma by inhalation after challenge in OVA sensitized guinea-pigs; format: in vivo; conditions: nebulized drug inhaled after antigen challenge
Excerpt: In an embodiment of the invention, the ovalbumin (OVA) sensitized guinea-pigs were first challenged with nebulized antigen to evoke asthma, then the animals were allowed to inhale nebulized R-bambuterol or bambuterol. […] In a further embodiment of the invention, the sensitized guinea-pigs were first pretreated with nebulized R-bambuterol or bambuterol by inhalation. After three minutes, the same animals were challenged with nebulized antigen. […] The fast onset of action in the invention can also not be explained by Svenssion's in vitro metabolic study noted above that the dominate product is mono-carbamate bambuterol and litter terbutaline at initial phase., while the major amount of terbutaline will be formed at much later phase. (Svensson et al., 1988).

[2] = test system: bronchial and lung preparations; conditions: in vitro; cited from earlier work
[3] = test system: histamine evoked asthma in conscious guinea-pigs; assay: Histamine-evoked asthma in conscious guinea pigs after oral administration; format: in vivo, guinea pigs (Dunkin-Hartley strain); conditions: for Latency: no collapse over 360 sec recorded as 360
Protocol: (§1) Test methods: Guinea pigs (Dunkin-Hartley strain, 200±30 g) were fasted overnight but given water ad libidum. The animals were restrained individually in a glass chamber and exposed to aerosol histamine generated by a nebulizer from a 0.2% aqueous solution of histamine under constant pressure at dose of 0.5 ml/min for a period of 15 sec. The animal was removed from the chamber, and its behavior was monitored. Assign of collapse and the latency time from exposure to collapse were recorded. Only the animals with latency time less than 120 sec, as an indication of sensitive to histamine, were chosen for later experiments. The animals chosen were allowed to recover completely by resting for 24 hours before experiments. R-bambuterol and racemic bambuterol hydrochloride were dissolved in saline and nublized in a nebulizer.
Comparison of the anti-asthma effects of R-bambuterol (R-BM) and bambuterol (RS-BM) administered by oral and by inhalation in conscious guinea pigs. Test methods: same as Example 1.
Study of dose-response: Same as Example 1, except the following: four hours before the exposure to aerosol histamine, animals were randomized into groups (n=8, equal male and female), and given R-bambuterol hydrochloride or racemic bambuterol hydrochloride in doses of 1.0, 2.0, 4.0 and 8.0 mg/kg, and vehicle control, orally via a stomach tube.

[4] = test system: histamine evoked asthma in conscious guinea-pigs; assay: Time course of anti-asthma effects after oral administration or inhalation; format: in vivo; conditions: for No. of collapsed: n=8
Protocol: The time course of the anti-asthma effects of R-bambuterol (R-BM) and bambuterol (RS-BM) after administered by oral and by inhalation. Test Methods: same as example 1 except the following:
For orally administration, R-Bambuterol hydrochloride or racemic bambuterol hydrochloride at 4 and 8 mg/kg, and vehicle alone, were administered to the guinea pigs orally via a stomach tube. Exposure of treated animals to aerosol histamine (as above) was done at 1, 4 and 12 hours after R-bambuterol or bambuterol treatment. For each experimental group, there were a total of 8 animals with equal number in sex, and no repeated exposure was made for individual experimental animals.
For inhalation, R-Bambuterol hydrochloride or racemic bambuterol hydrochloride at 0.252 and 0.504 mg/kg, and vehicle alone, were nebulized and administered to the guinea pigs by inhalation. Exposure of drug treated animals to aerosol histamine (as above) was done at 1,4 and 12 hours after drug treatment. For each experimental group, there were a total of 8 animals with equal number in sex, and no repeated exposure was made for individual experimental animals.

[5] = test system: asthma evoked by intravenously administrated histamine; conditions: anesthetized guinea pigs, intravenous histamine; cited from earlier work
[6] = cited from earlier work
[7] = test system: histamine evoked asthma in conscious guinea-pigs; assay: Protection against histamine-evoked asthma by inhaled drug in conscious guinea pigs; format: in vivo, guinea pigs (Dunkin-Hartley strain); conditions: for Latency: no collapse over 360 sec recorded as 360
Protocol: as §1
Study of dose-response: One hours before the exposure to aerosol histamine, animals were randomized into groups (n=8, equal sex), and Nublized R-bambuterol hydrochloride or bambuterol hydrochloride in doses of 63, 126, 252 and 504 μg/kg, and vehicle control were inhaled by the animals via a mouth and nasal mask. The numbers of collapsed animal as a result of asthmatic reaction to aerosol histamine were counted, and the latency times were recorded. Both of these parameters were used as quantitative measurements of the protective effects of the treatments on bronchospasm evoked by aerosol histamine.

[8] = test system: OVA evoked asthma in sensitized guinea pigs; assay: Airway resistance and dynamic pulmonary compliance after inhalation in OVA sensitized guinea pigs; format: in vivo; conditions: for protection against asthma attack by antigen (OVA) challenge: pretreatment by inhalation about three minutes before OVA challenge; for change of Raw and Cdyn at resting state after inhalation: before OVA challenge
Protocol: Sensitization of animals: Ovalbumin (10 μg/ml) was injected into guinea-pigs subcutaneously and coincidentally with an intraperitoneal injection of B. pertussis vaccine. Identical injection of ovalbumin and adjuvant were made day 15 and 21 days later. On day 28th the animals were examined and used for studies.
Test Methods: The sensitized guinea pigs wer anaethetized. A cannula was inserted into the trachea. A plueral cannula was inserted into pleural space through the chest wall. Airway resistance (Raw) and dynamic pulmonary compliance (Cdyn) were measured by using the signals of intraplueral pressure, airflow and tidal volume.
The animals were restreined in closed chamber and nebulized R-bambuterol or S-bambuterol were inhaled at the dose of 126 μg/kg. After three minutes conditioning, the animals were then challenged with nebulized OVA to evoke asthma. Airway resistance (Raw) and dynamic pulmonary compliance (Cdyn) were measured before and after evoking asthma.

[9] = test system: OVA evoked asthma in sensitized guinea pigs; assay: Airway resistance in OVA asthma attack after oral administration in sensitized guinea pigs; format: in vivo
Protocol: Sensitized animals were divided into Saline (control), S-Bambuterol and R-bambuterol groups. R or S bambuterol were administered by both inhalation by oral ([…]). Airway resistance (Raw) and dynamic pulmonary compliance (Cdyn) were measured at resting or during astham challenge by OVA. Animal preparation and experimental methods were similar as described previously.

[10] = test system: OVA evoked asthma in sensitized guinea pigs; assay: Drug tolerance to R-bambuterol induced by pretreatment; format: in vivo
Protocol: Animal sensitization and experiment methods were similar as discribed above. Briefly, animals were divided into three groups. R-bambuterol (8 mg/kg) or S-bamburerol (8 mg/kg) or 0.9% NaCL (control) were given orally in equal volum to each group seperatedly once a day for 7 consecutive days in order to induce drug tolerances. The Protection effects of same dosage of R-bambuterol against asthma attack induced by OVA challenge were evaluated by the changes of Airway resistance (Raw) and dynamic pulmonary compliance (Cdyn).

[11] = oral, at maximum effective dose (R-BM 4.0, RS-BM 8.0 mg/Kg)
[12] = inhalation (R-BM 252 μg/kg, RS-BM 504 μg/kg), histamine 60 min after
[13] = inhalation (R-BM 252 μg/kg, RS-BM 504 μg/kg), histamine 240 min after
[14] = inhalation (R-BM 252 μg/kg, RS-BM 504 μg/kg), histamine 720 min after
[15] = oral (R-BM 4.0 mg/kg, RS-BM 8.0 mg/kg), histamine 60 min after
[16] = oral (R-BM 4.0 mg/kg, RS-BM 8.0 mg/kg), histamine 240 min after
[17] = oral (R-BM 4.0 mg/kg, RS-BM 8.0 mg/kg), histamine 720 min after
[18] = inhale, at maximum effective dose (R-BM 0.252, RS-BM 0.505 mg/Kg)
[19] = pretreated with the labelled substance 8 mg/kg orally once a day 7 days, then R-bambuterol, OVA challenge, n=8

CN(C)C(=O)Oc1cc(OC(=O)N(C)C)cc(C(O)CNC(C)(C)C)c1 (racemic) [bambuterol]
relief of asthmatic symptoms after inhalation [1]: immediately relieved within matter of tenths of seconds to a couple of minutes | relaxation effects [2]: no relaxation effects | maximum effective dose required by oral (none of the histamine challenged animals collapsed) ([3]; oral): 8 mg/kg | Latency ([3]; oral 1.0 mg/Kg): 151 ± 130 s | Latency ([3]; oral 2.0 mg/Kg): 227 ± 143 s | Latency ([3]; oral 4.0 mg/Kg): 299 ± 113 s | Latency ([3]; oral 8.0 mg/Kg): 360 ± 0 s | Animal collapsed (%) [3, 11]: 0% | Animal collapsed (number/group) [3, 11]: 0/8 | maximum effective dose required by oral (none of the histamine challenged animals collapsed) ([3]; oral, listed as RS-BM): Oral (8.0 ) mg/Kg | Latency [4, 12]: 360 ± 0 s | No. of collapsed [4, 12]: 0/8 | Latency [4, 13]: 360 ± 0 s | No. of collapsed [4, 13]: 0/8 | Latency [4, 14]: 287 ± 136 s | No. of collapsed [4, 14]: 2/8 | maximum anti-asthmatic effects by inhalation faster than by oral administration ([4]; inhalation vs oral): 4 h | Latency [4, 15]: 260 ± 131 s | No. of collapsed [4, 15]: 3/8 | Latency [4, 16]: 360 ± 0 s | No. of collapsed [4, 16]: 0/8 | Latency [4, 17]: 360 ± 0 s | No. of collapsed [4, 17]: 0/8 | bronchospasmolytic effects when inhaled [5]: inactive and lack bronchospasmolytic effects | duration of blood concentration of active parent drug ([6]; after an oral administration): up to 24 hours | concentration in lungs relative to plasma ([6]; after oral administration (Svensson 1991)): ~20 times | amount needed relative to terbutaline to reach the same concentration of terbutaline in blood ([6]; given orally, on molar basis): 5 times | tmax of terbutaline released from bambuterol later than tmax of terbutaline taken orally ([6]; oral (Olsson et al. 1984)): four | time of maximum concentration (tmax) ([6]; oral): around one | dosage required for maximum anti-asthmatic effects (complete protection against histamine) by inhalation ([7]; inhalation): 512 µg/kg | maximum effective dose required by inhalation ([7]; inhale): Inhale (0.505) mg/Kg | Animal collapsed (%) [7, 18]: 0% | Animal collapsed (number/group) [7, 18]: 0/8 | Latency ([7]; inhaled 63 μg/Kg): 42 ± 9 s | Latency ([7]; inhaled 126 μg/Kg): 85 ± 112 s | Latency ([7]; inhaled 252 μg/Kg): 209 ± 162 s | Latency ([7]; inhaled 504 μg/Kg): 360 ± 0 s | Oral:Inhale ratio of maximum effective dose ([7]; oral dose vs inhaled dose for maximum anti-asthmatic effect): 16 | protection against asthma attack by antigen (OVA) challenge [8]: significant anti-asthma effects

CN(C)C(=O)Oc1cc(OC(=O)N(C)C)cc([C@H](O)CNC(C)(C)C)c1 [S-bambuterol]
change of Raw and Cdyn in resting state ([9]; given orally): little changes in either Raw and Cdyn | change in Raw / asthmatic response during the asthmatic attack by OVA ([9]; oral): significantly enhance the asthmatic response to OVA challenge than control; also recorded: significant increases in Raw; also recorded: significantly worsen the asthmatic response | Changes in Airway resistance (Raw) at 4th min after OVA challenge ([9]; pretreated oral 4 m/kg, n=8): 2.40 ± 0.96 | Changes in Airway resistance (Raw) at 5th min after OVA challenge ([9]; pretreated oral 4 m/kg, n=8): 2.41 ± 0.98 | protection effects of R-bambuterol against asthmatic attack after pretreatment ([10]; group pretreated with the labelled substance): significantly reduced | Changes in Cdyn During asthma [10, 19]: −0.25 ± 0.10 | Changes in Raw During asthma [10, 19]: +0.36 ± 0.23 | change of Raw and Cdyn at resting state after inhalation [8]: increasing airway resistance and reducing pulmonary dynamic compliance; also recorded: significant increase in airway resistance (Raw) and decrease in pulmonary compliance (Cdyn) | change of Raw and Cdyn at resting state after inhalation ([8]; listed as S-Bambuterol): significant increase in Raw and decrease in Cdyn | collapse induced by inhalation per se ([8]; inhalation, sensitized guinea pigs): induced a collapes of a guinea pig | protection against asthma attack by antigen (OVA) challenge [8]: no such protection at all; also recorded: inactive in protectoin against asthma attack | change of Raw and Cdyn during the asthma attack comparing to control ([8]; treated by inhalation): greater increase in airway resistance (Raw) and decrease in pulmonary compliance (Cdyn)
